# Experiments:
# Test in all cases: KAM-matrix competition in K562 lysate;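 on 0.001 uM KAM: median log10 fold change of treatment over DMSO control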;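 on 0.01 uM KAM: median log10 fold change of treatment over DMSO control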;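 on 0.1 uM KAM: median log10 fold change of treatment over DMSO control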;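 on 1 uM KAM: median log10 fold change of treatment over DMSO control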;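 on 10 uM KAM: median log10 fold change of treatment over DMSO control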
# Type in all cases: binding
# ADCK3 = molecular target: T1, ADCK3 (Homo sapiens, UniProt Q8NI60);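 on 0.001 uM KAM: median log10 fold change of treatment over DMSO control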;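 on 0.01 uM KAM: median log10 fold change of treatment over DMSO control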;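 on 0.1 uM KAM: median log10 fold change of treatment over DMSO control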;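 on 1 uM KAM: median log10 fold change of treatment over DMSO control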;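 on 10 uM KAM: median log10 fold change of treatment over DMSO control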
# T1 construct: endogenous in cells; host or cells: K562
# Method: (§1) Supplement 12953_2017_125_MOESM1_ESM.zip/MS_Supp Info.xlsx, sheet "KAM" | column: 10 uM KAM; 1 uM KAM; 0.1 uM KAM; 0.01 uM KAM; 0.001 uM KAM; RB50
# ARAF = molecular target: T2, ARAF (Homo sapiens, UniProt P10398);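 on 0.001 uM KAM: median log10 fold change of treatment over DMSO control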;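 on 0.01 uM KAM: median log10 fold change of treatment over DMSO control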;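 on 0.1 uM KAM: median log10 fold change of treatment over DMSO control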;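 on 1 uM KAM: median log10 fold change of treatment over DMSO control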;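 on 10 uM KAM: median log10 fold change of treatment over DMSO control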
# T2 construct: endogenous in cells; host or cells: K562
# T2 sequence (P10398 1-606): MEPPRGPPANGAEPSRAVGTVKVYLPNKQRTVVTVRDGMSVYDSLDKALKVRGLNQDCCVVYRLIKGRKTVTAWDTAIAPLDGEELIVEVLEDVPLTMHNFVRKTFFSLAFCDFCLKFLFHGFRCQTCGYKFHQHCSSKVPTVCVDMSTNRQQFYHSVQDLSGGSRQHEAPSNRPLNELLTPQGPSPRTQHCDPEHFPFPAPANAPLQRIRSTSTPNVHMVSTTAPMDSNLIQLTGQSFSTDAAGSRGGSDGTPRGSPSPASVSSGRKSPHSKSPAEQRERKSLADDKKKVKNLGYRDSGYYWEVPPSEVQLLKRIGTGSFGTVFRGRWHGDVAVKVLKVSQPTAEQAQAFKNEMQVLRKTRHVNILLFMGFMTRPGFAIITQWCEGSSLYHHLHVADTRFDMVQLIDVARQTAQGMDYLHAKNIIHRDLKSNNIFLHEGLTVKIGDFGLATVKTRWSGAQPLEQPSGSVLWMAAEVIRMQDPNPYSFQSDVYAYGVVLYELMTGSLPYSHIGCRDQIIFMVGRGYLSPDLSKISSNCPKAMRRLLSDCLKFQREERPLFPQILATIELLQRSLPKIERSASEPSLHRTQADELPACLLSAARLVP
# Method: as §1
# IKBKE = molecular target: T3, IKBKE (Homo sapiens, UniProt Q14164)
# T3 construct: endogenous in cells; host or cells: K562 cells (lysate)
# T3 sequence (Q14164 1-716): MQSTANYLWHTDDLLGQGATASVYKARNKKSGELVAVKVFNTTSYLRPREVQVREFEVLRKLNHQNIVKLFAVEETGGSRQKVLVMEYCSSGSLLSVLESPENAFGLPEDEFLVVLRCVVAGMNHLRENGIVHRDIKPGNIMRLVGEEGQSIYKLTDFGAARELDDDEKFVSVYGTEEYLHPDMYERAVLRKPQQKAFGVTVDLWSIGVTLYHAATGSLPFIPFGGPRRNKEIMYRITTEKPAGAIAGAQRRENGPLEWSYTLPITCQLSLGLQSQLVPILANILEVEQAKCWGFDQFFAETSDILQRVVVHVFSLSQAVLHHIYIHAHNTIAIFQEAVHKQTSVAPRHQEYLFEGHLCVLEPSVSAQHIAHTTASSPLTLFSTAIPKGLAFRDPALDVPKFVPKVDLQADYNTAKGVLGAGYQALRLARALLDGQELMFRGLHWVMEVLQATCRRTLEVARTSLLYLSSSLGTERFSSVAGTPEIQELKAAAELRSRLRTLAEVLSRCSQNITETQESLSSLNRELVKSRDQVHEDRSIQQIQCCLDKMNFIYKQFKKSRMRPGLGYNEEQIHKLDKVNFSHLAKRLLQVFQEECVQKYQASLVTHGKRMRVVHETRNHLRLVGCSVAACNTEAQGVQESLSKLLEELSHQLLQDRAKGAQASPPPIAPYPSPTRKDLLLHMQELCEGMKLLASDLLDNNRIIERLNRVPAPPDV
# Method: as §1
# IRAK1 = molecular target: T4, IRAK1 (Homo sapiens, UniProt P51617);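 on 0.001 uM KAM: median log10 fold change of treatment over DMSO control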;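 on 0.01 uM KAM: median log10 fold change of treatment over DMSO control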;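 on 0.1 uM KAM: median log10 fold change of treatment over DMSO control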;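 on 1 uM KAM: median log10 fold change of treatment over DMSO control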;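 on 10 uM KAM: median log10 fold change of treatment over DMSO control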
# T4 construct: endogenous in cells; host or cells: K562
# Method: as §1
# PKN2 = molecular target: T5, PKN2 (Homo sapiens, UniProt Q16513);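 on 0.001 uM KAM: median log10 fold change of treatment over DMSO control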;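 on 0.01 uM KAM: median log10 fold change of treatment over DMSO control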;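 on 0.1 uM KAM: median log10 fold change of treatment over DMSO control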;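 on 1 uM KAM: median log10 fold change of treatment over DMSO control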;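 on 10 uM KAM: median log10 fold change of treatment over DMSO control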
# T5 construct: endogenous in cells; host or cells: K562
# Method: as §1
# SLK = molecular target: T6, SLK (Homo sapiens, UniProt Q9H2G2)
# T6 construct: endogenous in cells; host or cells: K562
# Method: as §1
# ZAK = molecular target: T7, ZAK (Homo sapiens, UniProt Q9NYL2)
# T7 construct: endogenous in cells; host or cells: K562 cell lysate
# Method: as §1
# [1] = KAM 0.001-10 uM, read-out: RB50 (the source's name)
# [2] = read-out: RB50 (the source's name)
# T5 sequence (Q16513 whole entry): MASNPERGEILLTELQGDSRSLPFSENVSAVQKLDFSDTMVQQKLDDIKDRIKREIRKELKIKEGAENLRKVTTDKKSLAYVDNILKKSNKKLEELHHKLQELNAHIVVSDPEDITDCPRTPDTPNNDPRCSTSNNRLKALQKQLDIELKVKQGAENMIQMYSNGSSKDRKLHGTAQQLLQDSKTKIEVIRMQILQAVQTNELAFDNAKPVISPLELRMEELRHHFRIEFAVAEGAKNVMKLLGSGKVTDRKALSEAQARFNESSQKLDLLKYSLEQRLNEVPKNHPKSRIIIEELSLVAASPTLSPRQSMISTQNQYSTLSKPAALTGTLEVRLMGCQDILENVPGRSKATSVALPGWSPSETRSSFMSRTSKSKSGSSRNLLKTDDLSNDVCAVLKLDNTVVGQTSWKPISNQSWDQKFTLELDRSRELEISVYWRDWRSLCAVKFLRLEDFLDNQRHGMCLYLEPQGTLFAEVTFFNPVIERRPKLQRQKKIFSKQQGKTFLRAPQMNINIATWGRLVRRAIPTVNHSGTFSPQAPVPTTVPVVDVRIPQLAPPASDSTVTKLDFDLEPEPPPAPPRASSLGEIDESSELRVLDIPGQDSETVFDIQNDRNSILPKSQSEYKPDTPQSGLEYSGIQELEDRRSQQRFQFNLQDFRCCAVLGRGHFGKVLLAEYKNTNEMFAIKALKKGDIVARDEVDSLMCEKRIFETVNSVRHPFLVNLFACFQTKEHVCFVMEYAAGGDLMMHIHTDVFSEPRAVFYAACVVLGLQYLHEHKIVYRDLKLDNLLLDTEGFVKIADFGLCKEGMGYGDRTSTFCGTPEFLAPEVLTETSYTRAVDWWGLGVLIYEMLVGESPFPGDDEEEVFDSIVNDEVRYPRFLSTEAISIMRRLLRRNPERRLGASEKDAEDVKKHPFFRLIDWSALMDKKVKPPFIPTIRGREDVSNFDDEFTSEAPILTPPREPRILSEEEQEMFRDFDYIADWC
# T1 sequence (Q8NI60 163-647): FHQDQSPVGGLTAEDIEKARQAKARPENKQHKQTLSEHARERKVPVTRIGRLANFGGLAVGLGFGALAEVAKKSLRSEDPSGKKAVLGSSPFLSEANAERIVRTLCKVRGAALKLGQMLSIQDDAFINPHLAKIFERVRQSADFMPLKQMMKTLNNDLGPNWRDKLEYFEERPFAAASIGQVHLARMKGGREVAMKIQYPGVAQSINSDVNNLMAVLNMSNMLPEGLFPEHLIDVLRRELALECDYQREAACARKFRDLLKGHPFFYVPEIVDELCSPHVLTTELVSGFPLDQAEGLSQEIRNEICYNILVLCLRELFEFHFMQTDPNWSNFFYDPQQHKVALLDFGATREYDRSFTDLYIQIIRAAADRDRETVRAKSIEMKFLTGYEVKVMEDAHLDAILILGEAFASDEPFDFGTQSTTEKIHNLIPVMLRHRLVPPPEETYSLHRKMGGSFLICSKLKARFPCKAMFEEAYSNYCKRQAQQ
# T6 sequence (Q9H2G2 whole entry): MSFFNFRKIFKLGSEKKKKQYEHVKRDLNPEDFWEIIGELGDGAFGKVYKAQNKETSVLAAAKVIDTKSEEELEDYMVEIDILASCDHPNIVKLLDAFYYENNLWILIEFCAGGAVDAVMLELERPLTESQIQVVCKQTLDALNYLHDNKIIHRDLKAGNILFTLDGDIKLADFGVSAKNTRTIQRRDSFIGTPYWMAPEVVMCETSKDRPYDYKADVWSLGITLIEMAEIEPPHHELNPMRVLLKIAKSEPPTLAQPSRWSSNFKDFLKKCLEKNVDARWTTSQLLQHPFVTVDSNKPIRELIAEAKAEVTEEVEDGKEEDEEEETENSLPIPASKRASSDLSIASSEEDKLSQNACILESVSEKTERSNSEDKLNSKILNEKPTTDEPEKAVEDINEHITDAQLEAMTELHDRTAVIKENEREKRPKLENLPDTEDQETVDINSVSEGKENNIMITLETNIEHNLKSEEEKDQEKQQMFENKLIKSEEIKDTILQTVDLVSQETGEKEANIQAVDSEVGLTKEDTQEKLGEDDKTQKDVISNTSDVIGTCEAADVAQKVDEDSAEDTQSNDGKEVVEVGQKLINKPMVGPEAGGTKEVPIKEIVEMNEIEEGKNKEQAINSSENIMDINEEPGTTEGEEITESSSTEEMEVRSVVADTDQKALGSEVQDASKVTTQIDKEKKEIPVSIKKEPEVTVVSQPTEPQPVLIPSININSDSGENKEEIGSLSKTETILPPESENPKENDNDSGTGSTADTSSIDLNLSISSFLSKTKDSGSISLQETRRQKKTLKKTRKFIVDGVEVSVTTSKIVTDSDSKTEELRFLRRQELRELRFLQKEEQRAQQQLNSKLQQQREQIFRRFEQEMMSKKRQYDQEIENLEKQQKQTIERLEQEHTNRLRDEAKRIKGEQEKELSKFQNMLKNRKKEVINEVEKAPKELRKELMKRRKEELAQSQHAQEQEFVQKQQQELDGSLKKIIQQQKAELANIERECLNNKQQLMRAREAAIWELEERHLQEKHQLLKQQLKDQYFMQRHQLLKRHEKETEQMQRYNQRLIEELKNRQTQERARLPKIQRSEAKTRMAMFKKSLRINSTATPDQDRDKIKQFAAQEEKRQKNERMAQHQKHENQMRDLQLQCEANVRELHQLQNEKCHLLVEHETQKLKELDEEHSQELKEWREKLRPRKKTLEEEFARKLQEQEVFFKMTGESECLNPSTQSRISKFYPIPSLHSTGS
# T4 sequence (P51617 whole entry): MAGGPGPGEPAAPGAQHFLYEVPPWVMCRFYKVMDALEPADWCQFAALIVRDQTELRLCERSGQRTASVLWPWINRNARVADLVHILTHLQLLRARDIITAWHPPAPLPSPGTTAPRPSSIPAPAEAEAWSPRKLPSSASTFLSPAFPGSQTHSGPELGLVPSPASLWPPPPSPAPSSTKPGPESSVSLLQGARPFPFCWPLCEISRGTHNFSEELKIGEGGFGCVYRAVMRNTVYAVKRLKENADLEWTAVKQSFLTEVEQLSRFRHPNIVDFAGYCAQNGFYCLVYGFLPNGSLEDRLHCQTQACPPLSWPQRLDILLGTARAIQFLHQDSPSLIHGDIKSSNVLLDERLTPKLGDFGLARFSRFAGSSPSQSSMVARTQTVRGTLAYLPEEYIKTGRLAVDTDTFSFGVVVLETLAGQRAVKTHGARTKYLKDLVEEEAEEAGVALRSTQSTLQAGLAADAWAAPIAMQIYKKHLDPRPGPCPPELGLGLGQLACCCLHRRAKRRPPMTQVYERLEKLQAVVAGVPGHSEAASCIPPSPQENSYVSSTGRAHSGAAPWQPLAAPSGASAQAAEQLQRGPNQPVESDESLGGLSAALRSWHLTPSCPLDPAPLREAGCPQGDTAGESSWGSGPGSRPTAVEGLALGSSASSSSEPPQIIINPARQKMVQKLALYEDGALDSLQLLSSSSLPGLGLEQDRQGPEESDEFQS
# T7 sequence (Q9NYL2 whole entry): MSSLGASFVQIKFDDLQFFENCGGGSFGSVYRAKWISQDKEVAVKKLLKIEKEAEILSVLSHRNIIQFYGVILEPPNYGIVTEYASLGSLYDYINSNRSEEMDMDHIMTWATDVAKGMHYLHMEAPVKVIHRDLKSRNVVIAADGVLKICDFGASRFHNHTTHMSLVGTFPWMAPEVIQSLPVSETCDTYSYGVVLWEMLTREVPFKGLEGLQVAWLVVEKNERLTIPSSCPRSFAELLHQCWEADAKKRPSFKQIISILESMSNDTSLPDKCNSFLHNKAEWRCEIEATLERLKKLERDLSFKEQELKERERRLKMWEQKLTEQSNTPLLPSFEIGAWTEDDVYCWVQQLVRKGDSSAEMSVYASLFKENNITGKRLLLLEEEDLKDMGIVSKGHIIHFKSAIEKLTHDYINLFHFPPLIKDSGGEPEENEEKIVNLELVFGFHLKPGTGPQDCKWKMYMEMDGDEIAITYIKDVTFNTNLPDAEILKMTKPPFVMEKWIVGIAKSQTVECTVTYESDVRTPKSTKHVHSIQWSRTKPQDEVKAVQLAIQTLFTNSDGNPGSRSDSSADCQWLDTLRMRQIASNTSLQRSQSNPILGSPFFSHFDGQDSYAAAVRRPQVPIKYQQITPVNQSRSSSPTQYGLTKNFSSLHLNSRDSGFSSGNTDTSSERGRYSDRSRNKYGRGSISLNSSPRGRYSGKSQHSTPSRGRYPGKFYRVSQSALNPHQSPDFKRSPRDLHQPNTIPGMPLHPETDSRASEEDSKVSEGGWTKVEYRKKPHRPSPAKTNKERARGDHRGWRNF
structure (smiles),measurement,setting,value
N#CCc1ccc(Nc2nc(NCCCN)cc(Nc3cc(C4CC4)[nH]n3)n2)cc1 [KAM],IC50,ADCK3; [1],> 10000 nM
same,0.001 uM KAM,ADCK3; relative to 0 uM KAM = 0,-0.001841
same,0.01 uM KAM,ADCK3; relative to 0 uM KAM = 0,0.006632
same,0.1 uM KAM,ADCK3; relative to 0 uM KAM = 0,0.0007813
same,1 uM KAM,ADCK3; relative to 0 uM KAM = 0,0.03707
same,10 uM KAM,ADCK3; relative to 0 uM KAM = 0,-0.06845
same,IC50,ARAF; [1],> 10000 nM
same,0.001 uM KAM,ARAF; relative to 0 uM KAM = 0,-0.04442
same,0.01 uM KAM,ARAF; relative to 0 uM KAM = 0,-0.008723
same,0.1 uM KAM,ARAF; relative to 0 uM KAM = 0,-0.09412
same,1 uM KAM,ARAF; relative to 0 uM KAM = 0,-0.1283
same,10 uM KAM,ARAF; relative to 0 uM KAM = 0,-0.1374
same,median Log10 fold change,IKBKE; 0.001 uM KAM,-0.04139
same,median Log10 fold change,IKBKE; 0.01 uM KAM,-0.01605
same,median Log10 fold change,IKBKE; 0.1 uM KAM,-0.1319
same,median Log10 fold change,IKBKE; 1 uM KAM,-0.3552
same,median Log10 fold change,IKBKE; 10 uM KAM,-0.4826
same,IC50,IKBKE; [2],823 nM
same,IC50,IRAK1; [1],6030 nM
same,0.001 uM KAM,IRAK1; relative to 0 uM KAM = 0,-0.01461
same,0.01 uM KAM,IRAK1; relative to 0 uM KAM = 0,-0.006177
same,0.1 uM KAM,IRAK1; relative to 0 uM KAM = 0,-0.1059
same,1 uM KAM,IRAK1; relative to 0 uM KAM = 0,-0.1722
same,10 uM KAM,IRAK1; relative to 0 uM KAM = 0,-0.3131
same,IC50,PKN2; [1],> 10000 nM
same,0.001 uM KAM,PKN2; relative to 0 uM KAM = 0,-0.006639
same,0.01 uM KAM,PKN2; relative to 0 uM KAM = 0,0.00337
same,0.1 uM KAM,PKN2; relative to 0 uM KAM = 0,-0.04124
same,1 uM KAM,PKN2; relative to 0 uM KAM = 0,-0.08858
same,10 uM KAM,PKN2; relative to 0 uM KAM = 0,-0.1344
same,median Log10 fold change,SLK; 0.001 uM KAM,0.008335
same,median Log10 fold change,SLK; 0.01 uM KAM,-0.005793
same,median Log10 fold change,SLK; 0.1 uM KAM,-0.3118
same,median Log10 fold change,SLK; 1 uM KAM,-0.5551
same,median Log10 fold change,SLK; 10 uM KAM,-0.6917
same,IC50,SLK; [2],139 nM
same,median Log10 fold change,ZAK; 0.001 uM KAM,-0.0362
same,median Log10 fold change,ZAK; 0.01 uM KAM,-0.03172
same,median Log10 fold change,ZAK; 0.1 uM KAM,-0.2036
same,median Log10 fold change,ZAK; 1 uM KAM,-0.2767
same,median Log10 fold change,ZAK; 10 uM KAM,-0.5362
same,IC50,ZAK; [2],990 nM
